Reference: ChEMBL document CHEMBL1201862, “PubChem BioAssay data set” (2004)
Active and inactive are the calls of the source.

Legend:
[1] = target: Cytochrome P450 2C19 (Homo sapiens, UniProt P33261); experiment: Cytochrome panel assay with activity outcomes. Panel member name: p450-cyp2c19 Compounds with AC50 equal or less than 10 uM are considered active; type: functional
[2] = target: Cytochrome P450 2C9 (Homo sapiens, UniProt P11712)
[3] = target: T1, Cytochrome P450 1A2 (Homo sapiens, UniProt P05177)
T1 sequence (P05177 whole entry): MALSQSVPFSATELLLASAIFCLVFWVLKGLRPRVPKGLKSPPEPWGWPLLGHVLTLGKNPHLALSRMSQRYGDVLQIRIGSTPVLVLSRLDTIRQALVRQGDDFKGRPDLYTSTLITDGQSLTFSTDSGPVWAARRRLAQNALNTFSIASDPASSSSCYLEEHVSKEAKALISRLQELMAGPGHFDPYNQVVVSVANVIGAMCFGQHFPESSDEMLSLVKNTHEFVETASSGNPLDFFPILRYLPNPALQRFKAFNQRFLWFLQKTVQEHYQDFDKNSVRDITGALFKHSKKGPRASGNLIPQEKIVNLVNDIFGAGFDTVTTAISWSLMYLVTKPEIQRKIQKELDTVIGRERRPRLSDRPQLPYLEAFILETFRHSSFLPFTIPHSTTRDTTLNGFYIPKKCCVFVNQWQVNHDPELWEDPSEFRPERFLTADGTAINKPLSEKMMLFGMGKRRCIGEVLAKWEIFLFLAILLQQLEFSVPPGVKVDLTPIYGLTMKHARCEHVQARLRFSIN

[4] = test system: Streptococcus sp. 'group A'; experiment: growth inhibition of control SK(-) GAS strain, dose response, counter-screen for streptokinase expression inhibitor project, luminescence, kanamycin, BacTiterGlo, confirmation (AID 1900); type: functional, organism-based
[5] = target: T2, Streptokinase A (Streptococcus pyogenes serotype M1, UniProt P10520); experiment: S. pyogenes streptokinase expression inhibitors, potency, dose response, plasminogen activation absorbance, OD405 (AID 1914); type: functional, Streptococcus pyogenes M1 GAS;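 note: secreted streptokinase activity via plasminogen activation per viability signal from cell pellet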
T2 sequence (P10520 whole entry): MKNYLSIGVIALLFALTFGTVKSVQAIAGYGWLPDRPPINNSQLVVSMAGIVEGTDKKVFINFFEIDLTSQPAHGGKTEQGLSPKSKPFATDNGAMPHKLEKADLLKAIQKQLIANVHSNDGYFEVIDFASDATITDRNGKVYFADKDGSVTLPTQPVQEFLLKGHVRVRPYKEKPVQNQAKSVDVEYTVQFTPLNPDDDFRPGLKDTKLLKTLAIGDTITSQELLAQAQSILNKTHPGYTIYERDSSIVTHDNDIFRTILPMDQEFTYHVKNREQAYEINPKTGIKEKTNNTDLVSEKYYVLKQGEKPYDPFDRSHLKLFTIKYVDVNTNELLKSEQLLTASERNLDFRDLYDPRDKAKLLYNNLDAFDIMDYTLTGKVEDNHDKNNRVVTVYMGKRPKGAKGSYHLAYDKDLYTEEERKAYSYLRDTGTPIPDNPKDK

[6] = test system: Streptococcus; experiment: Group A Streptococcus viability loss, dose response, counter-screen for streptokinase expression inhibitor project, luminescence, BacTiterGlo (AID 1915); type: functional, organism-based;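 note: potency for reduction of bacterial viability or growth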
[7] = inhibitors of intracellular T. cruzi replication, confirmation, NIH3T3 host cells, beta-gal luminescence (AID 2044); type: functional, cell-based;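 note: intracellular parasites grown in NIH/3T3 mouse fibroblasts as host cells; luminescent beta-galactosidase reporter signal from transgenic T. cruzi replicating inside host cells; inhibitors lower the luminescence signal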
[8] = cytotoxicity toward NIH3T3 fibroblasts, dose response, counter-screen, cell-based, ATP luminescence, mouse fibroblasts (AID 2010); type: functional;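 note: cells exposed to compound for about 90 hours before reading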

Sequence of Cytochrome P450 2C19 (P33261 whole entry): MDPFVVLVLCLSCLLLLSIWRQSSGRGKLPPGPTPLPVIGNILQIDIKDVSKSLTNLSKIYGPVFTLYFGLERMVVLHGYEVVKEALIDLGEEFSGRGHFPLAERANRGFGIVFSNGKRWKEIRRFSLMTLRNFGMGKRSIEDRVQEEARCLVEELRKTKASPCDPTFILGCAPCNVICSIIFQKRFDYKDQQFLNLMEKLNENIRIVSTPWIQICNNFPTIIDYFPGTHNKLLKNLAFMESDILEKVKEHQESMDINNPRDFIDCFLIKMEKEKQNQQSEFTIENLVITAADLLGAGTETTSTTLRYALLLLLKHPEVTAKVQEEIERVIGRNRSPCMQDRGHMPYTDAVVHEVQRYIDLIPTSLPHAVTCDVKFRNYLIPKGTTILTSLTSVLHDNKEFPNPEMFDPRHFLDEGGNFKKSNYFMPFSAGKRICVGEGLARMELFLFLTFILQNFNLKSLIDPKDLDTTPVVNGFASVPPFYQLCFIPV
Sequence of Cytochrome P450 2C9 (P11712 whole entry): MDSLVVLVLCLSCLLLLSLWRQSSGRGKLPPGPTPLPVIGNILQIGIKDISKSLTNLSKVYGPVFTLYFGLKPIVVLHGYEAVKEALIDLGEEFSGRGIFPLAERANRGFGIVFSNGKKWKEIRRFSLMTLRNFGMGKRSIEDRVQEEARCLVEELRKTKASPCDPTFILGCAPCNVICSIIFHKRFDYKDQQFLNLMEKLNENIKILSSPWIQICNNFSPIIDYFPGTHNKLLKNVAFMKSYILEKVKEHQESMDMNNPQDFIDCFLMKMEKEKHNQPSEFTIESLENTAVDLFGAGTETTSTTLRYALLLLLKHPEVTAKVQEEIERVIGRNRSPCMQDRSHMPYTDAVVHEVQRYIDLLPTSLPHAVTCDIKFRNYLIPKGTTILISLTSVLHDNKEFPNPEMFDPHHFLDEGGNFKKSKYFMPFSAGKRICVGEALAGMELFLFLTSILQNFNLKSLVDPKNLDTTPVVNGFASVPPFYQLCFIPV

With COC(=O)[C@@]1(Cc2ccc(F)cc2)[C@H]2c3cc(C(=O)N4CCCC4)n(Cc4ccc(Cl)c(C(F)(F)F)c4)c3C[C@H]2CN1C(=O)c1ccccc1 the AC50 ([1]; read-out: AC50) was 31.6 µM (inconclusive).

For Cc1cc(N)n2ncc(-c3ccc(Cl)cc3)c2n1, the AC50 [2] was 31.6 µM (inconclusive).

In the case of CC1=CC(C)(C)Nc2ccc(CSc3ccccc3)cc21, the AC50 [3] was 0.501 µM (inconclusive).

In the case of COc1cc(OC)cc(C(=O)NC(=S)N2CCN(c3ccc(C(F)(F)F)cc3[N+](=O)[O-])CC2)c1, the EC50 [4] was 1.61 µM (active), the EC50 [5] was > 150 µM (not active) and the EC50 [6] was > 150 µM (not active).

With CCn1ccnc1CN(C)Cc1cn(-c2ccc(C)cc2)nc1-c1cccc(C)c1 the EC50 [7] was 1.92 µM (active) and the EC50 [8] was > 60 µM (not active).

With CCc1ccc(Nc2n[n+](-c3ccccc3)c(-c3ccc(OCc4ccccc4)cc3)s2)cc1 the EC50 [7] was 2.01 µM (active) and the EC50 [8] was > 30 µM (not active).

For COC(=O)c1[nH]c2cc(OC)ccc2c1NC(=O)CCN1CCSCC1, the AC50 [2] was 22.4 µM (inconclusive).

With O=C(NNC(=S)NC(=O)c1cccnc1)c1ccc(Cl)cc1 the EC50 [4] was 5.07 µM (active) and the EC50 [6] was 11.4 µM (active).

For CCC(=O)OCN1C(=O)C=CC1=O, the AC50 ([1]; read-out: AC50) was 0.002 µM (inconclusive).

In the case of COc1ccc(CNc2ccnc(-c3ccc(C(=O)N(C)C)cc3)n2)c(OC)c1, the AC50 ([1]; read-out: AC50) was 20 µM (inconclusive) and the AC50 [3] was 12.6 µM (inconclusive).

With CCC1CCCCN1c1cc(C)nc2cc(-c3cccc(C)c3)nn12 (configuration not stated) the EC50 [4] was 6.17 µM (active), the EC50 [5] was 15.3 µM (active) and the EC50 [6] was 13.7 µM (active).

With COc1ccc(N/C=C2/Sc3ccccc3NC2=O)cc1 the EC50 [7] was 1.22 µM (active) and the EC50 [8] was > 30 µM (not active).

In the case of Cc1cc(Br)ccc1OCCN1CCCC1, the EC50 [7] was 0.651 µM (active) and the EC50 [8] was 58.7 µM (active).

For COc1cc2nc(S)n3nc(COc4ccccc4C)nc3c2cc1OC, the EC50 [4] was 4.21 µM (active), the EC50 [5] was > 150 µM (not active) and the EC50 [6] was 10.5 µM (active).

For O=C(NCC(c1cccs1)N1CCOCC1)c1ccco1 (configuration not stated), the AC50 [2] was 22.4 µM (inconclusive).

In the case of Cc1cc(C)n2nc(C(=O)NCc3cccc(C(F)(F)F)c3)nc2n1, the EC50 [7] was > 60 µM (not active) and the EC50 [8] was > 60 µM (inconclusive).

With CC1CCN(CCCCOc2ccccc2[N+](=O)[O-])CC1 the AC50 ([1]; read-out: AC50) was 15.8 µM (inconclusive).

For COc1cc(-c2nnc(SCC3(c4ccc(Br)cc4)OCCO3)o2)cc(OC)c1OC, the AC50 [2] was 39.8 µM (inconclusive).

For CCOC(=O)C1CCCN(C(=O)c2cc3nc(-c4ccc5c(c4)OCO5)cc(C(F)(F)F)n3n2)C1 (configuration not stated), the AC50 [3] was 25.1 µM (inconclusive).

For CCOC(=O)c1c(NC(=O)COC(=O)c2ccc(C)s2)sc2c1CC(C)(C)NC2(C)C, the EC50 [4] was 2.43 µM (active), the EC50 [5] was > 150 µM (not active) and the EC50 [6] was 26.8 µM (active).

For CC1C(=O)C(C)C(c2ccc([N+](=O)[O-])cc2)NC1c1ccc([N+](=O)[O-])cc1 (configuration not stated), the EC50 [7] was 0.632 µM (active) and the EC50 [8] was > 30 µM (not active).

In the case of CC(C)CNc1nc(N)nc(O)c1NC=O, the AC50 [1] was “inconclusive”.

For CC(=O)NC1(c2cccc(F)c2)CCN(CC(=O)NC(C)C)CC1, the AC50 ([1]; read-out: AC50) was 39.8 µM (inconclusive).

With Cc1[nH]c2ccc(F)cc2c1CCN(Cc1cccnc1)C(S)=NC(C)(C)C the EC50 [7] was 0.577 µM (active) and the EC50 [8] was > 60 µM (not active).

In the case of Cc1nc2sccn2c(=O)c1Cl, the AC50 [3] was 15.8 µM (inconclusive).

With Cc1c(C(=O)OC(C)CCN(C)C)oc2ccccc12 (configuration not stated) the EC50 [7] was 0.574 µM (active) and the EC50 [8] was > 30 µM (not active).

For O=C(NNc1ccccc1Cl)C(O)(c1cccc(C(F)(F)F)c1)c1cccc(C(F)(F)F)c1, the EC50 [4] was 2.65 µM (active), the EC50 [5] was 3.16 µM (active) and the EC50 [6] was 17.4 µM (active).

In the case of COCCNc1nc(-c2cccc(OC)c2)nc2ccccc12, the AC50 ([1]; read-out: AC50) was 31.6 µM (inconclusive).

In the case of Cc1cccc(NC(=O)c2sc(Cl)nc2-c2ccccc2)c1, the EC50 [4] was 5 µM (active), the EC50 [5] was > 150 µM (not active) and the EC50 [6] was 19.3 µM (active).

In the case of CCCN(CCO)Cc1ccc(F)c(Br)c1, the AC50 [3] was 15.8 µM (inconclusive) and the AC50 [2] was 0.126 µM (inconclusive).

For CC(C)N1CCN(Cc2ccc3c(c2)Cc2ccccc2-3)CC1CCO (configuration not stated), the EC50 [7] was 0.532 µM (active) and the EC50 [8] was 7.87 µM (active).

In the case of O=C(Oc1cccc(Br)c1)c1cccnc1, the AC50 ([1]; read-out: AC50) was 39.8 µM (inconclusive) and the AC50 [2] was 39.8 µM (inconclusive).

For Clc1ccc2c(c1)C=Nc1c(NCc3ccccc3)ncnc1O2, the AC50 [3] was 0.631 µM (inconclusive).

With O=C(O)CSCNC(=O)CC12CC3CC(CC(C3)C1)C2 the AC50 ([1]; read-out: AC50) was 28.2 µM (inconclusive).

With C=C1CCC2C(C)(C)[C@@H](O)CC[C@@]2(C)[C@@H]1COc1ccc2ccc(=O)oc2c1 (some centres not stated) the EC50 [4] was 9.27 µM (active), the EC50 [5] was 6.72 µM (active) and the EC50 [6] was > 150 µM (not active).

For Cc1cc(C)c(-c2csc(NC(=O)c3cc([N+](=O)[O-])ccc3N3CCOCC3)n2)c(C)c1, the EC50 [7] was 1.44 µM (active) and the EC50 [8] was > 30 µM (not active).

In the case of CNCCCCCCCCSc1nc(C(C)C)ccc1C(=O)c1cccs1, the AC50 [2] was 25.1 µM (inconclusive).

With Cn1cccc1C(=O)N1CCC[C@@]2(CCN(C(c3ccccc3)c3ccccc3)C2)C1 the AC50 ([1]; read-out: AC50) was 25.1 µM (inconclusive) and the AC50 [2] was 39.8 µM (inconclusive).

For COc1ccc(-c2nc3cnc(Nc4ccccc4)nc3n(CCC#N)c2=O)cc1, the AC50 [3] was 0.501 µM (inconclusive).

With O=C(NCC1CCN(Cc2ccccc2Cl)CC1)Nc1cccc(Cl)c1 the EC50 [4] was > 150 µM (not active), the EC50 [5] was 49.3 µM (active) and the EC50 [6] was > 150 µM (not active).

For COc1ccccc1Nc1nc(N)nc(CSC(=S)N2CCN(c3ccccc3)CC2)n1, the EC50 [7] was 2.57 µM (active) and the EC50 [8] was > 60 µM (not active).

For FC(F)(F)c1cccc(NC(S)=NN=C(S)Nc2cccc(C(F)(F)F)c2)c1, the EC50 [4] was 1.65 µM (active) and the EC50 [6] was 4.04 µM (active).

For COc1cc2c(cc1OC)CN(C(=O)COc1ccc(C)c(C)c1)CC2, the EC50 [7] was 2.93 µM (active) and the EC50 [8] was > 60 µM (not active).

In the case of NC[C@@H](O)CSCc1ccc(Cl)cc1, the AC50 ([1]; read-out: AC50) was 0.1 µM (inconclusive).

With CC(C)(CN1CCN(C(c2ccccc2)c2ccccc2)CC1)NS(=O)(=O)c1ccccc1 the EC50 [7] was 1.7 µM (active) and the EC50 [8] was > 60 µM (not active).

For Cc1ccccc1OCCn1cnc2cc([N+](=O)[O-])ccc2c1=O, the EC50 [7] was 0.615 µM (active) and the EC50 [8] was > 30 µM (not active).

With O=C(NCCc1c[nH]c2ccccc12)[C@@H]1C[C@H]1[C@@H](NP(=O)(c1ccccc1)c1ccccc1)c1ccccc1 the AC50 [3] was 15.8 µM (inconclusive).

With Cc1cc2c(=O)n(Cc3ccco3)c(SCC(=O)N3CCCc4ccccc43)nc2s1 the EC50 [4] was 20.4 µM (active), the EC50 [5] was 31.8 µM (active) and the EC50 [6] was > 150 µM (not active).

For COc1cccc(Cn2c(=O)c(C)nc3cnc(Oc4cccc(Cl)c4)nc32)c1, the AC50 [3] was 25.1 µM (inconclusive).

For Cc1cc(N)n(-c2ccccc2)n1, the AC50 ([1]; read-out: AC50) was 2.24 µM (inconclusive) and the AC50 [3] was 31.6 µM (inconclusive).

For COCCn1c(C)cc(C2=NN=C(Nc3ccc(F)cc3)SC2)c1C, the AC50 [3] was 11.2 µM (inconclusive).

For CC(=O)Nc1ccc(NC(=O)CSc2nnc(-c3ccccc3)n2Cc2ccc3c(c2)OCO3)cc1, the AC50 [3] was 31.6 µM (inconclusive).

With C[N+](C)(CCCCCC[N+](C)(C)CCCN1C(=O)c2ccccc2C1=O)CCCN1C(=O)c2ccccc2C1=O the AC50 ([1]; read-out: AC50) was 31.6 µM (inconclusive) and the AC50 [3] was 31.6 µM (inconclusive).

For CSc1ccccc1NC(=S)N/N=C/c1cccn1Cc1cccc(C)c1, the EC50 [7] was 2.35 µM (active) and the EC50 [8] was > 60 µM (not active).

For O=C(O)c1ccc(N/N=C/c2ccc(-c3ccc(Br)cc3)o2)cc1, the EC50 [4] was 4.26 µM (active) and the EC50 [6] was 3.02 µM (active).

In the case of Oc1ccc(Br)cc1/C=N/Nc1ncc(-c2ccccc2)cn1, the EC50 [4] was 1.51 µM (active) and the EC50 [6] was 2.68 µM (active).

For Cc1cc(Cl)ccc1OCC(=O)N/N=C1\CCCc2ccccc21, the AC50 [3] was 2.51 µM (inconclusive) and the AC50 [2] was 3.55 µM (inconclusive).

In the case of CC(CC(=O)O)(CC(=O)O)c1ccccc1, the AC50 [1] was “inconclusive”.
